Data as given in US8686113B2 (priority 2009, dated 2014).
Converted amounts (≈) assume the structure as drawn. Like-named read-outs stand apart in the source and are kept apart here. Non-standard residues stand in square brackets, D forms with d. Residues, ends and D or L forms follow the SMILES beside them. No end group written: not given here. Hyp = O=C(O)[C@@H]1C[C@@H](O)CN1; Orn = NCCC[C@H](N)C(=O)O

Key:
[1] = mouse, serum, Half-life in 25% mouse serum, 25% aqueous mouse serum, 37° C., 75 μg/mL peptide
E. coli BL21 A1 = format: cell-based, Escherichia coli; settings: BL21, 20 h
Procedure, shortened: (§1)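 Broth microdilution in 1% TSB with twofold peptide series, final 128 μg/mL to 62.5 ng/mL, against 5×10^6 bacteria/mL stock suspension added 1:1. Incubated 20 h at 37 °C, growth read by absorbance at 595 nm; MIC is the lowest concentration with no growth, determined in triplicate.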

[2] = mouse, serum
Procedure: (§2) For this, the peptides and peptidomimetics were dissolved in water, mouse serum was added and the peptide concentration was adjusted to 75 μg/mL. While shaking continuously, the mixture was incubated at 37° C. After 0, 30, 60, 120, 240 and 360 minutes, in each case an aliquot was taken and mixed with 15% aqueous trichloroacetic acid (Carl Roth GmbH & Co. KG; Karlsruhe, Germany). After incubation on ice for a further 10 minutes, the precipitated serum proteins were centrifuged off (5 min, 13400 rpm, MiniSpin, Eppendorf AG, Hamburg, Germany). The supernatant was removed, neutralized with 1 mol/L aqueous sodium hydroxide solution (Fluke Chemie GmbH, Buchs, Switzerland) and stored at −20° C. until analysis.
(§3) The supernatants were analyzed by RP-HPLC with a linear acetonitrile gradient (Biosolve BV, Valkenswaard, The Netherlands) in the presence of 0.1% trifluoroacetic acid (TFA, UV-grade, Fluka Chemie GmbH, Buchs, Switzerland) as ion-pairing reagent. The fractions were co-crystallized with α-cyanohydroxycinnamic acid (Bruker Daltonik GmbH; Bremen, Germany) as matrix (5.3 mg/mL in 50% acetonitrile in 0.1% aqueous TFA) and were analyzed with a tandem mass spectrometer (MALDI-TOF/TOF-MS, 4700 Proteomics Analyzer; Applied Biosystems GmbH, Weiterstadt, Germany) in the positive-ion reflector mode. The proportion of intact peptides and their degradation products or metabolites could thus be identified and quantified at the individual time points. The control used was 25% aqueous mouse serum, which was analyzed in parallel for the same time intervals.

M. luteus 10240 [3] = test: Growth inhibition assay (microdilution MIC); format: cell-based, Micrococcus luteus; settings: 10240, 20 h
Procedure, shortened: as §1

S. saprophyticus 15305 = settings: 15305
[4] = tested on: S. typhimurium ATCC 700408
P. vulgaris ATCC 6896 = settings: ATCC 6896
[5] = tested on: S. typhimurium ATCC 14028
[6] = tested on: S. typhimurium s5 (J. Weiser); settings: ¼ Muller-Hinton medium
[7] = tested on: K. pneumoniae K6 ATCC 700603; settings: ATCC 700603
K. pneumoniae ATCC 27799 = settings: ATCC 27799
[8] = tested on: P. aeruginosa 10 J. Wilson
E. coli D31 J. Wilson = settings: ¼ Muller-Hinton medium
E. coli ATCC BAA-457 = settings: ¼ Muller-Hinton medium
P. mirabilis ATCC 7002 = settings: ATCC 7002
E. coli 045-849 SENTRY = settings: ¼ Muller-Hinton medium
[9] = 25% aqueous mouse serum, 37° C., 75 μg/mL peptide
in vitro = settings: mouse, 100% mouse serum
Procedure: as §2, §3

[10] = tested on: Klebsiella pneumoniae DSM 681
[11] = tested on: Pseudomonas aeruginosa DSM 3227
[12] = tested on: Escherichia coli DSM 10233
human erythrocytes = test: Hemolysis test; format: cell-based; settings: 1 h at 37° C., relative to Triton X-100
From the text: Another possibility for investigating the cytotoxicity of the peptides and peptide derivatives is the hemolysis test. The hemolytic activity is investigated on human erythrocytes (Ryge T S & Hansen P R. Potent antibacterial lysine-peptoid hybrids identified from a positional scanning combinatorial library. Bioorganic & Medicinal Chemistry 14: 4444-51, 2006), which the Leipzig University Hospital (Germany) made available as human erythrocyte concentrate in sodium chloride-adenine-glucose-mannitol buffer (stored at 4° C.). The erythrocytes were centrifuged off at 1000 g and washed three times with ten times the volume of cold phosphate-buffered saline (PBS, pH 7.4). The erythrocytes were diluted to a final concentration of 1% in PBS. One hundred microliters of erythrocyte suspension was pipetted into each V-shaped well of a 96-well polypropylene microtiter plate (Greiner Bio-One GmbH). Then 100 μL of the peptides dissolved in PBS was added to each position, to obtain a dilution series from 600 μg/mL to 4.7 μg/mL in seven dilution steps. The microtiter plate was incubated at 37° C. for 1 h and then centrifuged at 1000*g. 100 μL was taken from the supernatant, transferred to a 96-well flat-bottomed polystyrene microtiter plate (Greiner Bio-One GmbH) and the absorption was determined at 405 nm in a Sunrise microtiter plate reader (Tecan Trading AG, Mannedorf, Switzerland), to evaluate the release of the heme group. PBS or 0.1% Triton X-100® ((p-tert-octylphenoxy) polyethoxyethanol; Fluka Chemie GmbH, Buchs, Switzerland) and melittin (SIGMA-Aldrich-Laborchemikalien, Taufkirchen, Germany) were used as negative or positive controls. All hemolysis tests were carried out twice independently as double determination and the degree of hemolysis was determined from the following equation (Park Y et al. A Leu-Lys-rich antimicrobial peptide: activity and mechanism. Biochimica et Biophysica Acta-Proteins and Proteomics 1645: 172-82, 2003): Epeptide−EPBS)/ETriton−EPBS)×100% E=extinction at 405 nm

[13] = background statement; cited from earlier work
M. luteus 10240 [14] = format: cell-based, Micrococcus luteus; settings: alanine scan
Procedure: The purified peptides and peptide derivatives were diluted in water to a final concentration of 500 μg/mL. The test microbes were plated out from a culture in the logarithmic growth phase at a concentration of approx. 3×10^5 cells/mL in 1% tryptic soy broth and 1.2% agarose (Fluka Chemie GmbH, Buchs, Switzerland). With spacing of 3 cm, in each case 10 μL of aqueous peptide solution (500 μg/mL) or 10 μL of water and antibiotic solution as controls were added dropwise. After incubation for 20 h at 37° C., the inhibition zone diameter (IZD) was determined. All tests were performed in aerobic conditions.

[15] = Stability against bacterial proteases in E. coli lysate; format: in vitro ADME; settings: E. coli lysate with 0.5 mg/mL protein concentration, 37° C.
Procedure: For the bacterial lysate, 500 mL of nutrient broth (Carl Roth GmbH+Co. KG, Karlsruhe) was inoculated with E. coli BL21 A1 and incubated overnight at 37° C. 2×250 mL bacterial suspension were centrifuged for 25 min at 5000 rpm and 4° C. in a Beckman Avanti™ J-20-XP centrifuge with JLA-10.500 rotor (Beckman Coulter, Fullerton, U.S.A.). The pellets were each suspended in 30 mL PBS (pH 7.4) and centrifuged again in a Beckman Allegra™ 2IR centrifuge (Beckman Coulter, Fullerton, U.S.A.). The pellets were each suspended in 10 mL PBS and were disrupted with ultrasound (Vibra-cell™ microtip, Fisher Bioblock Scientific, Illkirch, France) 2×5 min (750 W; amplitude 40%; 2 s on/3 s off) on ice. The bacterial lysates were combined and 1 mL aliquots were centrifuged at 15400 rpm for 20 min at 4° C. (Beckman Allegra™). The supernatants were removed and stored at −20° C. The protein content of the bacterial lysate was determined by protein determination according to Bradford.
A solution of 0.15 μg/mL peptide in bacterial lysate with protein content of 1.5 mg/mL or 0.5 mg/mL was incubated at 37° C. After 0, 30, 60, 120, 240 or 360 min, 200 μL was taken from each and the proteins were precipitated with 50 μL of 15% trichloroacetic acid. Then it was incubated for 10 min at 4° C. and then centrifuged for 5 min at 13000 rpm in a Minispin desktop centrifuge. 210 μL was taken from the supernatant and neutralized with 1 mol/L sodium hydroxide solution. The intact peptide and the degradation products were analyzed by HPLC. 60 μL of 3% aqueous acetonitrile with 0.1% trifluoroacetic acid (TFA) was added to the solution and 250 μL of the mixture was injected. After chromatographic separation, the constituents were identified by MALDI-TOF-MS,
In order to investigate the stability against bacterial proteases, a lysate was prepared from an overnight culture of E. coli BL21 A1 and the peptides were incubated in it. Using Bradford protein determination, the protein concentration was adjusted to 0.5 or 1.5 mg/mL.

[16] = E. coli lysate with 0.5 mg/mL protein concentration; settings: E. coli BL21 A1, 37° C., up to 360 min
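For Half-life in 25% mouse serum in this document: intact peptide left at successive time points measured by reversed-phase HPLC with an acetonitrile gradient in the supernatant after precipitation of serum proteins.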

CC[C@H](C)[C@H](NC(=O)[C@H](CCCNC(=N)N)NC(=O)[C@H](CCCNC(=N)N)NC(=O)[C@@H]1C[C@@H](O)CN1C(=O)[C@@H]1CCCN1C(=O)[C@H](CCCNC(=N)N)NC(=O)[C@@H]1CCCN1C(=O)[C@H](CCCNC(=N)N)NC(=O)[C@@H]1CCCN1C(=O)[C@H](CC(C)C)NC(=O)[C@H](Cc1ccc(O)cc1)NC(=O)[C@@H]1CCCN1C(=O)[C@@H]1CCCN1C(=O)[C@H](CCCCN)NC(=O)[C@H](CC(=O)O)NC(=O)[C@@H](N)C(C)C)C(=O)N[C@@H](Cc1ccc(O)cc1)C(=O)N[C@@H](CC(N)=O)C(=O)N[C@@H](CCCNC(=N)N)C(N)=O [compound 24] (H-VDKPPYLPRPRP[Hyp]RRIYNR-NH2)
half-life [1]: 1 h
MIC E. coli BL21 A1 (E. coli BL21 A1): 8 µg/mL (≈ 3.33 µM)
half-life [2]: 0.583 h
MIC M. luteus 10240 (M. luteus 10240 [3]): 8 µg/mL (≈ 3.33 µM)
MIC S. saprophyticus 15305 (S. saprophyticus 15305): 16 µg/mL (≈ 6.65 µM)
MIC P. aeruginosa 39324 (P. aeruginosa 39324): 4 µg/mL (≈ 1.66 µM)
MIC S. typhimurium ATCC 700408 [4]: 0.13 µg/mL (≈ 0.054 µM)
MIC P. vulgaris ATCC 6896 (P. vulgaris ATCC 6896): 128 µg/mL (≈ 53.2 µM)
MIC S. typhimurium ATCC 14028 [5]: 2 µg/mL (≈ 0.831 µM)
MIC S. typhimurium s5 (J. Weiser) [6]: 2 µg/mL (≈ 0.831 µM)
MIC K. pneumoniae K6 ATCC 700603 [7]: 8 µg/mL (≈ 3.33 µM)
MIC K. pneumoniae ATCC 27799 (K. pneumoniae ATCC 27799): 8 µg/mL (≈ 3.33 µM)
MIC P. aeruginosa 10 J. Wilson [8]: 2 µg/mL (≈ 0.831 µM)
MIC E. coli D31 J. Wilson (E. coli D31 J. Wilson): 1 µg/mL (≈ 0.416 µM)
MIC K. pneumoniae 012-3131 (K. pneumoniae 012-3131): 2 µg/mL (≈ 0.831 µM)
MIC E. coli SEQ 102ATCC # BAA-4 57 (E. coli ATCC BAA-457): 4 µg/mL (≈ 1.66 µM)
MIC P. mirabilis ATCC 7002 (P. mirabilis ATCC 7002): 128 µg/mL (≈ 53.2 µM)
MIC E. coli 045-849 SENTRY (E. coli 045-849 SENTRY): 2 µg/mL (≈ 0.831 µM)

CC[C@H](C)[C@H](NC(=O)[C@@H]1C[C@@H](O)CN1C(=O)[C@H](CCCNC(=N)N)NC(=O)[C@@H]1CCCN1C(=O)[C@@H]1CCCN1C(=O)[C@H](CCCNC(=N)N)NC(=O)[C@@H]1CCCN1C(=O)[C@H](CCCNC(=N)N)NC(=O)[C@@H]1CCCN1C(=O)[C@H](CC(C)C)NC(=O)[C@H](Cc1ccc(O)cc1)NC(=O)[C@@H]1CCCN1C(=O)[C@@H]1CCCN1C(=O)[C@H](CCCCN)NC(=O)[C@H](CC(=O)O)NC(=O)[C@@H](N)C(C)C)C(=O)N[C@@H](Cc1ccc(O)cc1)C(=O)N[C@@H](CC(N)=O)C(=O)N[C@@H](CCCN)C(N)=O [compound 63] (H-VDKPPYLPRPRPPR[Hyp]IYN[Orn]-NH2)
Half-life in 25% mouse serum [9]: >6 h
remaining at 8 h, 75 μg/mL (in vitro): 60%
MIC E. coli BL21 A1 (E. coli BL21 A1): 4 µg/mL (≈ 1.74 µM)
half-life [2]: > 8 h
MIC K. pneumoniae DSM 681 [10]: 2 µg/mL (≈ 0.868 µM)
MIC P. aeruginosa DSM 3227 [11]: 16 to 32 µg/mL
MIC E. coli DSM 10233 [12]: 1 µg/mL (≈ 0.434 µM)

(p-tert-octylphenoxy) polyethoxyethanol [Triton X-100, reference compound]
Degree of hemolysis [%] at 600 μg/mL (human erythrocytes): 100%

GKPRPYSPRPTSHPRPIRV [compound 89]
Degree of hemolysis [%] at 600 μg/mL (human erythrocytes): 1.1%

GKPRPYSPRPTSHPRPIRV-OH [SEQ ID NO. 89, reference compound]
degradation in mammalian serum (25%) [13]: broken down within an hour
MIC M. luteus 10240 (M. luteus 10240 [3]): 0.5 µg/mL

GNNRPVYIPQPRPPHPRL [compound 87]
Degree of hemolysis [%] at 600 μg/mL (human erythrocytes): 1.2%

H-VDKPPYLPRPRPPRRAYNR-NH2 [SEQ ID NO. 44]
increase in inhibition zone relative to oncocin, M. luteus (M. luteus 10240 [14]): 0.7 cm

H-VDKPPYLPRPRPPRRIYAR-NH2 [SEQ ID NO. 46]
increase in inhibition zone relative to oncocin, M. luteus (M. luteus 10240 [14]): 0.7 cm

H-VDKPPYLPRPRPPRRIYNR-NH2 [compound 18]
Degree of hemolysis [%] at 600 μg/mL (human erythrocytes): 1.5%
half-life [1]: 1 h
half-life [2]: 0.5 h
half-life [15]: 1 h
MIC K. pneumoniae DSM 681 [10]: 4 µg/mL
MIC P. aeruginosa DSM 3227 [11]: >32 µg/mL
MIC E. coli DSM 10233 [12]: 16 µg/mL
MIC S. typhimurium ATCC 14028 [5]: 2 µg/mL
MIC S. typhimurium s5 (J. Weiser) [6]: 4 µg/mL
MIC K. pneumoniae K6 ATCC 700603 [7]: 8 µg/mL
MIC K. pneumoniae ATCC 27799 (K. pneumoniae ATCC 27799): 16 µg/mL
MIC P. aeruginosa 10 J. Wilson [8]: 8 µg/mL
MIC E. coli SEQ 102ATCC # BAA-4 57 (E. coli ATCC BAA-457): 4 µg/mL
MIC E. coli 045-849 SENTRY (E. coli 045-849 SENTRY): 4 µg/mL

VDKGSYLPRPTPPRPIYNRN-NH2 [SEQ ID NO. 91]
half-life in mammalian serum (25%) [13]: 2 h

VDKPPYLPRPRP-4tHyp-R-4tHyp-Tle-YNO-NH2
not cleaved [16]: >240 min, 90%

VDKPPYLPRPRPPRO-Tle-YNO-NH2
not cleaved [16]: >240 min, 90%
